Article PMC5841354, “Gomesin peptides prevent proliferation and lead to the cell death of devil facial tumour disease cells” (Cell Death Discovery, 2018)

What was measured:
cultured DFTD cells = details: cited from earlier work
Text: In this pioneer study, we examined for the first time, in our knowledge, the therapeutic potential of spider-venom peptides against DFTD. Our study provides a molecular and mechanistic characterisation of the mode of action of gomesin peptides to prevent the proliferation of DFTD cells. This is especially relevant since the Tasmanian devil population has declined by at least 80%[1] and currently the therapeutic strategies to slow down the progression of DFTD in infective-devils have been ineffective. That was the case of vincristine, a chemotherapeutic agent used in human and veterinary medici ...

DFTD4 cells [1] = assay: Mitochondrial membrane potential (Rhodamine 123); assay type: cell-based, Tasmanian devil (Sarcophilus harrisii); details: 50 µg/mL, 24 h, vs. vehicle
Experimental: We measured the mitochondrial membrane potential (MMP) using Rhodamine 123 (Rhod-123) (Sigma-Aldrich, Australia), a cationic dye that is localised in mitochondria. Loss-of-MMP results in loss-of-Rhod-123 fluorescence. Approximately 1 × 10^6 DFTD4 cells treated with AgGom or HiGom at 50 µg/mL for 24 h were collected and resuspended in 0.1 ml of culture medium, stained with 10 µg/mL Rhod-123 for 30 min, and then washed with PBS. The intracellular concentration of Rho123 was determined immediately after by flow cytometry (BD Biosciences, USA) using an excitation wavelength of 488 nm. The data were analysed using FlowJo v10.06 (FlowJo, USA).

DFTD1 cells = assay: MTT cell viability, DFTD1 cells; assay type: cell-based, Tasmanian devil (Sarcophilus harrisii); details: Table 3, 48 h
Text: (§1) All DFTD (DFTD1, DFTD2, and DFTD4) and fibroblast (FIBS) cell lines were obtained from the Department of Primary Industries, Parks, Water, and Environment, State Government of Tasmania (DPIPWE) and were established as part of management plan and adhere to a standard operating practice. The DFTD1 cell line with catalogue number 3287 is derived from the tumour from a female devil (tag number: 06/2887) collected at St Marys, Eastern Tasmania in 2006. DFTD2 cell line with catalogue number 8961 was developed from a tumour from a male devil (tag number: 12/0625) collected at Kempton, Northern Tasmania in 2012. The DFTD4 cell line with catalogue number 4099 was developed from the tumour of a male devil (tag number: 07/0192) that was collected at Freycinet, east coast of Tasmania in 2007 and Fibroblasts cells (FIBS) with catalogue number 497 were obtained from a healthy devil male pup (tag number: 05/0962) held at Mount Pleasant, Southeastern of Tasmania in 2005. […]
(§2) Cell viability as an indicator of the number of viable and proliferative cells was measured by MTT according to the protocol of the manufacturer (Sigma-Aldrich, Australia). […] Plates were measured after 48 h at 540 nm absorbance in a microplate reader (BIOTEK PowerWave XS, USA). […]

DFTD4 cells [2] = assay: qRT-PCR of cell cycle check-point, pro-survival and apoptosis genes; assay type: cell-based, Tasmanian devil (Sarcophilus harrisii); details: 50 μg/mL, vs. vehicle
Experimental: Total RNA was extracted from both untreated (control) and gomesin-treated DFTD4 cells using an RNeasy kit (Qiagen, Australia) and 1 µg was reverse-transcribed into cDNA using SensiFast (Bioline, UK). Quantitative real time-PCR (qRT-PCR) to quantitate mRNA expression was performed on a LightCycler Instrument (Roche Molecular Biochemicals, Australia) with Tasmanian devil 18S used as the reference (housekeeper) gene. All primers are listed in Supplementary.

DFTD4 cells [3] = assay: Cell cycle analysis (PI, flow cytometry); assay type: cell-based, Tasmanian devil (Sarcophilus harrisii); details: 50 μg/mL, 24 h, mean ± SEM, three independent experiments
Experimental: DFTD4 cells were synchronised by removing serum from the medium for ~24 h. Cells were then transferred into medium containing serum and treated with AgGom or HiGom at 50 µg/mL for 24 h. Cells were detached mechanically, washed with PBS and fixed with 70% ethanol for ~1 h at 4 °C. Ethanol was removed by centrifugation (453 g for 5 min) and cells were washed with PBS. Cells were treated with 5 µL of 10 µg/mL ribonuclease A to remove RNA contamination and further incubated for 1 h at 37 °C to allow release of low-molecular weight DNA. Cell pellets were stained with 10 µL of propidium iodide (PI) (1 mg/ml) and analysed at a maximum emission of 605 nm using a LSR Fortessa 5 analyser (BD Biosciences, San Diego, CA, US). Approximately 10,000 events were recorded and data were analysed using FlowJo software v10.06 (FlowJo, US).

DFTD4 cells [4] = assay: Annexin V-FITC/PI apoptosis and necrosis; assay type: cell-based, Tasmanian devil (Sarcophilus harrisii); details: 50 µg/mL, 24 h
Experimental: Apoptosis in DFTD4 cells treated with AgGom or HiGom was measured using an Annexin V-FITC Apoptosis detection kit in combination with a Canto II high-throughput fluorescence-activated cell sorter (BD Biosciences, USA). Briefly, cells were seeded at a density of 100,000 cells/well in a round-bottom 96-well plate and treated with 50 µg/mL AgGom or HiGom for 24 h. The cells were collected mechanically, washed twice with PBS and once with wash buffer provided by the manufacturer. Cells were stained simultaneously with FITC-labelled annexin V and PI for 30 min in the dark and at room temperature before being analysed.

DFTD4 cells [5] = assay: Reactive oxygen species (Carboxy-H2DCFDA, flow cytometry); assay type: cell-based, Tasmanian devil (Sarcophilus harrisii); details: 50 μg/mL, 24 h, vs. untreated
Experimental: An Amplex Red Hydrogen Peroxidase assay kit (Invitrogen, Australia) was used to measure reactive oxygen species (ROS) generation in DFTD4 cells. A fluorescence probe that detects intracellular H2O2, Carboxy-H2DCFDA, was added 30 min prior to collecting cells to measure ROS production in DFTD4 cells that were previously treated with gomesin peptides at 50 µg/mL for 24 h. Fluorescent cells were washed twice with PBS prior to analysis on a FACSCalibur flow cytometer (BD Biosciences, USA) using excitation and emission wavelengths of 492 nm and 517 nm, respectively. Approximately 10,000 events were recorded per sample and the readout was analysed using FlowJo software v10.06 (FlowJo, USA).

FIBS cells = assay: MTT cell viability, non-transformed fibroblasts (FIBS); assay type: cell-based, Tasmanian devil (Sarcophilus harrisii); details: 50 µg/mL, 48 h
Text: (§3) All DFTD (DFTD1, DFTD2, and DFTD4) and fibroblast (FIBS) cell lines were obtained from the Department of Primary Industries, Parks, Water, and Environment, State Government of Tasmania (DPIPWE) and were established as part of management plan and adhere to a standard operating practice. The DFTD1 cell line with catalogue number 3287 is derived from the tumour from a female devil (tag number: 06/2887) collected at St Marys, Eastern Tasmania in 2006. DFTD2 cell line with catalogue number 8961 was developed from a tumour from a male devil (tag number: 12/0625) collected at Kempton, Northern Tasmania in 2012. The DFTD4 cell line with catalogue number 4099 was developed from the tumour of a male devil (tag number: 07/0192) that was collected at Freycinet, east coast of Tasmania in 2007 and Fibroblasts cells (FIBS) with catalogue number 497 were obtained from a healthy devil male pup (tag number: 05/0962) held at Mount Pleasant, Southeastern of Tasmania in 2005.
(§4) Devil Facial Tumor cancer cell lines, and the control Tasmanian Devil fibroblast (FIBS) healthy cell line were maintained in a humidified incubator at 35 °C and 5% CO2. The DFTD cell lines were cultured in RPMI-1640 medium supplemented with 10% FCS, and 2 mM Glutamax. The FIBS was grown in GIBCO AmnioMAX-C100 Basal Medium liquid, containing AmnioMAX-C100 supplement. Penicillin/streptomycin (PS) (100 U/ml each) was added to both media. The cells were passaged at ~90% confluency. Functional studies were performed with passages up to 20. All cell lines were mycoplasma free.
(§5) Cell viability as an indicator of the number of viable and proliferative cells was measured by MTT according to the protocol of the manufacturer (Sigma-Aldrich, Australia). In brief, 8000 DFTD and 5000 FIBS cells/well were seeded in a 96-flat adherent microtiter well plate for 24 h to allow cell adhesion. Gomesin peptides and/or analogues were then added to the plates to measure MTT reduction. Plates were measured after 48 h at 540 nm absorbance in a microplate reader (BIOTEK PowerWave XS, USA). 0.1% SDS was used as a positive control (100% toxicity). A row of untreated cells was used to define 100% viability and blank wells containing only media were used to extract background. The concentration of gomesin peptides causing 50% inhibition (EC50) in DFTD and FIBS cells was determined using GraphPad Prism Software (Graphpad Inc, USA).

DFTD4 cells [6] = assay: MTT cell viability, DFTD4 cells; assay type: cell-based, Tasmanian devil (Sarcophilus harrisii)
Text: as §3, §4, §5

DFTD2 cells = assay: MTT cell viability, DFTD2 cells; assay type: cell-based, Tasmanian devil (Sarcophilus harrisii); details: Table 3, 48 h
Text: as §1, §2

| Molecule | apoptotic activity against cultured DFTD cells (cultured DFTD cells) | MMP (DFTD4 cells [1]) | EC50 (µg/mL) DFTD1 (DFTD1 cells) | expression of BCL2 (DFTD4 cells [2]) | expression of p21 (DFTD4 cells [2]) | expression of p53 (DFTD4 cells [2]) | expression of pro-survival gene MCL1 (DFTD4 cells [2]) | p27 expression (DFTD4 cells [2]) | G0/G1 (DFTD4 cells [3]) | G2/M (DFTD4 cells [3]) | S-phase (DFTD4 cells [3]) | early or late apoptotic cell ratio (DFTD4 cells [4]) | necrosis of DFTD cells compared to untreated cells (DFTD4 cells [4]) | ROS (DFTD4 cells [5]) | deleterious effects on FIBS viability (FIBS cells) | cell viability / anti-proliferative activity in DFTD4 cells (DFTD4 cells [6]; 50 µg/mL, 48 h) | EC50 (DFTD4 cells [6]; DFTD4 cells, 48 h exposure, three independent experiments in triplicate) | EC50 (µg/mL) DFTD2 (DFTD2 cells) |
| --- | --- | --- | --- | --- | --- | --- | --- | --- | --- | --- | --- | --- | --- | --- | --- | --- | --- | --- |
| CC(C)Cn1cnc2c(N)nc3ccccc3c21 [imiquimod] | displayed apoptotic activity | – | – | – | – | – | – | – | – | – | – | – | – | – | – | – | – | – |
| ZCRRLCYKQRCVTYCRGR-NH2 (bicyclic or more) [AgGom, 18-residue spider peptide gomesin first isolated from hemocytes of Acanthoscurria gomesiana] | – | significant decrease in MMP | 20.4 µg/mL | enhanced | induction | enhanced | induction | statistically significant increase | 39.9 ± 1.32 | 14.3 ± 0.9 | 11.47 ± 1.35 | not altered | significantly increased necrosis | significant increase in ROS | not statistically significant | dramatically reduced the cell viability | 25.25 mg/L | 12.29 µg/mL |
